The test has as its target T1, SOS1 binding to KRAS G12C (Homo sapiens, UniProt Q07889).
T1 construct: consisting of amino acid residues 564 to 1049 which are the catalytic domain; purchased Reaction Biology Corporation MSC-11-502 (SOS1-Strep); MSC-11-538 (KRAS G12C)
T1 sequence (Q07889 564-1049): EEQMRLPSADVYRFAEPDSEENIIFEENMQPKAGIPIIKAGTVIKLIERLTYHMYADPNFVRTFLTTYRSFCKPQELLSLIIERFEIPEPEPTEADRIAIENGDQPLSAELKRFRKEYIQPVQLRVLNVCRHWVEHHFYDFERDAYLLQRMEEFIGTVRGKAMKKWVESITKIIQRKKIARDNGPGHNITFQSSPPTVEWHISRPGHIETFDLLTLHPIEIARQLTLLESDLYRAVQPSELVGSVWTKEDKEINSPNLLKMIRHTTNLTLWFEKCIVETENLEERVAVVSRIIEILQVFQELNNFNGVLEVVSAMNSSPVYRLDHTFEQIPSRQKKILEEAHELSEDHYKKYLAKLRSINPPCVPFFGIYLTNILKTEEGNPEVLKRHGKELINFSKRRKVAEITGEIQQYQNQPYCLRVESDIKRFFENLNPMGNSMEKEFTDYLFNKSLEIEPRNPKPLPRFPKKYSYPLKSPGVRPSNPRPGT
The test can be described thus: SOS1 GTP substitution inhibition test (HTRF/TR-FRET, KRAS G12C-SOS1 binding inhibitory ability). To be noted: HTRF, GST-KRAS G12C (2-169), SOS1-Strep (564-1049), 1.6, 8, 40, 200, 1,000 nM. It is filed as biochemical. The method, then: In order to determine whether the substitution function of SOS1 binding to KRAS G12C is inhibited by the above-described example compounds, a homogeneous time-resolved fluorescence (HTRF) test was performed using G12C(#MSC-11-538) and SOS1-Strep(#MSC-11-502) purchased from Reaction Biology Corporation (MA, USA). The activity of SOS1 enzyme was determined by measuring the amount of GTP bound to KRAS G12C proteins, using the principle of time-resolved fluorescence energy transfer (TR-FRET). Based on the principle that terbium bound to the GST-binding antibody of the GST-KRAS G12C protein acts as a donor of fluorescence resonance energy transfer (FRET), and the GTP bound to the KRAS G12C protein is labeled with the fluorescent agent DY-647P1 and acts as a receiver, when the more GTP is bound to the KRAS G12C protein by the substitution reaction of SOS1 according to this test, the higher HTRF or FRET signal is measured. To summarize, glutathione S-transferase (GST)-tagged KRAS G12C proteins (consisting of amino acid residues 2 to 169) required for the reaction, streptavidin-tagged SOS1 proteins (consisting of amino acid residues 564 to 1049 which are the catalytic domain), anti-GST antibody (#61[…]) purchased from CISBIO corporation, nucleic acid (#NU-820-647P1) purchased from Jena Bioscience GmbH were mixed in a buffer solution formed from 10 mM HEPES pH7.4, 150 mM NaCl, 5 mM MgCl2, and 1 mM dithiothreitol (DTT), and the mixture was added to a 384-well plate and reacted at room temperature. Next, FRET signals were measured with a Perkin Elmer Envision microplate reader. In this case, an excitation signal (excitation) was measured at 320 nm, and an emission signal (emission) was measured at 615/665 nm. The fluorescence measurement value when the SOS1 protein was not included was calculated as a background signal value, and the background signal value was subtracted from all of the measured HTRF values. The fluorescence measurement value when the synthesized compound was not included was measured as a control value, and this value was selected as a reference point of 100%. For each of the example compounds, fluorescence was measured at concentrations of 1.6, 8, 40, 200, and 1,000 nM (5 points, 5-fold), and the 50% activity inhibition value (IC50) of each of the compounds was calculated using GraphPad Prism. When the IC50 value was 50 nM or less, the inhibitory ability was denoted as +++. When the IC50 value was more than 50 nM and 100 nM or less, the inhibitory ability was denoted as ++. When the IC50 value was more than 100 nM, the inhibitory ability was denoted as +.
A general note: Time-resolved FRET reads energy transfer from a long-lived donor to a nearby acceptor.
By IC50 is commonly meant the concentration needed to halve the response being measured. Higher therefore signals lower potency. Take `COc1cc2c(N[C@H](C)c3cc(N)cc(C(F)(F)F)c3)nc(C)nc2cc1C(=O)N1CCOCC1` [Example 1, (R)-(4-((1-(3-amino-5-(trifluoromethyl)phenyl)ethyl)amino)-6-methoxy-2-methylquinazoline-7-yl)(morpholino)methanone]: the IC50 was at most 50 nM.
With `CNCc1ccccc1-c1csc(C(C)Nc2nc(C)nc3cc(C(=O)N4CCOCC4)c(OC)cc23)c1` (stereo not shown) [Example 2, (6-methoxy-2-methyl-4-((1-(4-(2-((methylamino)methyl)phenyl)thiophen-2-yl)ethyl)amino)quinazoline-7-yl)(morpholino)methanone], the IC50 is 50 to 100 nM.
In the case of `COc1cc2c(N[C@H](C)c3cc(N)cc(C(F)(F)F)c3)nc(C)nc2cc1C(=O)N1C[C@@H](C)N[C@@H](C)C1` [Example 3, (4-(((R)-1-(3-amino-5-(trifluoromethyl)phenyl)ethyl)amino)-6-methoxy-2-methylquinazoline-7-yl)((3R, S)-3,5-dimethylpiperazin-1-yl)methanone], the IC50 was over 100 nM.
`COc1cc2c(N[C@H](C)c3cc(N)cc(C(F)(F)F)c3)nc(C)nc2cc1C(=O)N1CCSCC1` [Example 4, (R)-(4-((1-(3-amino-5-(trifluoromethyl)phenyl)ethyl)amino)-6-methoxy-2-methylquinazoline-7-yl)(thiomorpholino)methanone] showed a half-inhibitory concentration (IC50) of 50 to 100 nM.
For `COc1cc2c(N[C@H](C)c3cc(N)cc(C(F)(F)F)c3)nc(C)nc2cc1C(=O)N1CC2COCC2C1` (stereo partly drawn) [Example 5, (4-(((R)-1-(3-amino-5-(trifluoromethyl)phenyl)ethyl)amino)-6-methoxy-2-methylquinazoline-7-yl)(tetrahydro-1H-furo[3,4-c]pyrrol-5(3H)-yl)methanone], the IC50 is over 100 nM.
Consider `COc1cc2c(N[C@H](C)c3cccc(C(F)F)c3F)nc(C)nc2cc1C(=O)N1CCOCC1` [Example 6, (R)-(4-((1-(3-(difluoromethyl)-2-fluorophenyl)ethyl)amino)-6-methoxy-2-methylquinazoline-7-yl)(morpholino)methanone], for which the IC50 lay in the range of 50 to 100 nM.
The compound `COc1cc2c(N[C@H](C)c3cc(N)cc(C(F)(F)F)c3)nc(C)nc2cc1C(=O)N1CCC1` [Example 7, (R)-(4-((1-(3-amino-5-(trifluoromethyl)phenyl)ethyl)amino)-6-methoxy-2-methylquinazoline-7-yl)(azetidine-1-yl)methanone] gave an IC50 of over 100 nM.
Turning to `COc1cc2c(NC(C)c3cc(-c4cccc5c4CNCC5)cs3)nc(C)nc2cc1C(=O)N1CCOCC1` (stereo not shown) [Example 8, (6-methoxy-2-methyl-4-((1-(4-(1,2,3,4-tetrahydroisoquinolin-8-yl)thiophen-2-yl)ethyl)amino)quinazoline-7-yl)(morpholino)methanone], the IC50 was over 100 nM.
With `COc1cc2c(N[C@H](C)c3cc(N)cc(C(F)(F)F)c3)nc(C)nc2cc1C(=O)N1CCNCC1` [Example 9, (R)-(4-((1-(3-amino-5-(trifluoromethyl)phenyl)ethyl)amino)-6-methoxy-2-methylquinazoline-7-yl)(piperazine-1-yl)methanone], the IC50 was at most 50 nM.
Compound `COc1cc2c(N[C@H](C)c3cc(NC(=O)C(F)(F)F)cc(C(F)(F)F)c3)nc(C)nc2cc1C(=O)N1CCOCC1` [Example 10] registered a 50% inhibitory concentration (IC50) of over 100 nM.
Turning to `COc1cc2c(N[C@H](C)c3cc(N)cc(C(F)(F)F)c3)nc(C)nc2cc1C(=O)N1CC(F)C1` [Example 11, (R)-(4-((1-(3-amino-5-(trifluoromethyl)phenyl)ethyl)amino)-6-methoxy-2-methylquinazoline-7-yl)(3-fluorazetidine-1-yl)methanone], the IC50 was over 100 nM.
Regarding `COc1cc2c(NC(C)c3cc(-c4ccccc4CN(C)C)cs3)nc(C)nc2cc1C(=O)N1CCOCC1` (stereo not shown) [Example 12], the IC50 fell in the range of 50 to 100 nM.
`COc1cc2c(NC(C)c3cc(-c4ccccc4CN)cs3)nc(C)nc2cc1C(=O)N1CCOCC1` (stereo not shown) [Example 13]: the IC50 was 50 to 100 nM.
In the case of `COc1cc2c(NC(C)c3cc(-c4ccccc4CO)cs3)nc(C)nc2cc1C(=O)N1CCOCC1` (stereo not shown) [Example 14] it was over 100 nM; in that of `COc1cc2c(N[C@H](C)c3cccc(C(F)(F)F)c3)nc(C)nc2cc1C(=O)N1CCOCC1` [Example 15, (R)-(6-methoxy-2-methyl-4-((1-(3-(trifluoromethyl)phenyl)ethyl)amino)quinazolin-7-yl)(morpholino)methanone], over 100 nM; in that of `COc1cc2c(N[C@H](C)c3cc(N)cc(C(F)(F)F)c3C)nc(C)nc2cc1C(=O)N1CCOCC1` [Example 16, (R)-(4-((1-(5-amino-2-methyl-3-(trifluoromethyl)phenyl)ethyl)amino)-6-methoxy-2-methylquinazolin-7-yl)(morpholino)methanone], 50 to 100 nM.
For `COc1cc2c(N[C@H](C)c3cc(N)cc(F)c3)nc(C)nc2cc1C(=O)N1CCOCC1` [Example 17] the value was at most 50 nM; for `COc1cc2c(N[C@H](C)c3cc(N)cc(C(F)(F)F)c3)nc(C)nc2cc1C(=O)N1CCS(=O)(=O)CC1` [Example 18, (R)-(4-((1-(3-amino-5-(trifluoromethyl)phenyl)ethyl)amino)-6-methoxy-2-methylquinazolin-7-yl)(1,1-dioxothiomorpholino)methanone], at most 50 nM; for `COc1cc2c(N[C@H](C)c3cccc(N)c3OC)nc(C)nc2cc1C(=O)N1CCOCC1` [Example 19, (R)-(4-((1-(3-amino-2-methoxyphenyl)ethyl)amino)-6-methoxy-2-methylquinazolin-7-yl)(morpholino)methanone], over 100 nM.
Compound `COc1cc2c(N[C@H](C)c3cc(N)cc(C(F)(F)F)c3)nc(C)nc2cc1C(=O)N1CCSC1` [Example 20, (R)-(4-((1-(3-amino-5-(trifluoromethyl)phenyl)ethyl)amino)-6-methoxy-2-methylquinazolin-7-yl)(thiazolidine-3-yl)methanone] displayed an IC50 of at most 50 nM.
With `COc1cc2c(N[C@H](C)c3cc(C)cc(N)c3)nc(C)nc2cc1C(=O)N1CCOCC1` [Example 21, (R)-(4-((1-(3-amino-5-methylphenyl)ethyl)amino)-6-methoxy-2-methylquinazolin-7-yl)(morpholino)methanone], the IC50 lay within 50 to 100 nM.
Take `COc1cc2c(N[C@H](C)c3cc(N)cc(C#N)c3)nc(C)nc2cc1C(=O)N1CCOCC1` [Example 22, (R)-3-amino-5-(1-((6-methoxy-2-methyl-7-(morpholine-4 carbonyl)quinazolin-4-yl)amino)ethyl)benzonitrile]: the concentration for half-maximal inhibition (IC50) was over 100 nM.
In the case of `COc1cc2c(N[C@H](C)c3cccc4c3CCC4)nc(C)nc2cc1C(=O)N1CCOCC1` [Example 23, (R)-(4-((1-(2,3-dihydro-1H-inden-4-yl)ethyl)amino)-6-methoxy-2-methylquinazolin-7-yl)(morpholino)methanone] it was 50 to 100 nM; in that of `COc1cc2c(N[C@H](C)c3cc(N)cc(C4CC4)c3)nc(C)nc2cc1C(=O)N1CCOCC1` [Example 24, (R)-(4-((1-(3-amino-5-cyclopropylphenyl)ethyl)amino)-6-methoxy-2-methylquinazolin-7-yl)(morpholino)methanone], 50 to 100 nM.
In the case of `COc1cc2c(N[C@H](C)c3cc(N)cc(C(F)(F)F)c3F)nc(C)nc2cc1C(=O)N1CCOCC1` [Example 25, (R)-(4-((1-(5-amino-2-fluoro-3-(trifluoromethyl)phenyl)ethyl)amino)-6-methoxy-2-methylquinazolin-7-yl)(morpholino)methanone] it was at most 50 nM.

The values above are taken from patent US20240067613A1, “NOVEL QUINAZOLINE DERIVATIVES AS SOS1 INHIBITORS AND USE THEREOF” (HANMI PHARMACEUTICAL CO., LTD., priority 2020, published 2024).
